Measurements published in US7863255B2, “Methods of administering antitumor agent comprising deoxycytidine derivative” (Taiho Pharmaceutical Co., Ltd., priority 2008, dated 2011).

What was measured:
[1] = tested on: human-derived tumor lines; assay: Antitumor tests using animal models, rapid intravenous infusion; format: in vivo; details: rapid intravenous infusion for 10 consecutive days, five times a week for two weeks, or once a week for two weeks; majority of lines; regrowth after completion
Text: However, the regrowth of tumors was observed after completion of the administration, and the cytoreductive effect was not necessarily shown. Further, increasing the dosage so as to increase the antitumor effect causes toxicity, including body weight suppression and leucopenia.

[2] = tested on: human colon cancer line KM20C; assay: Antitumor effect of continuous intravenous infusion of CNDAC and gemcitabine in tumor-bearing rats; format: in vivo, rat
Experimental: The antitumor effect was studied in a continuous intravenous infusion of CNDAC and gemcitabine administered to tumor-bearing rats having the human colon cancer line KM20C. FIG. 2 indicates the results.
CNDAC was administered by continuous intravenous infusion (continuously injected under the skin for 24 hours using a subcutaneous implantation constant-speed pump) in an amount of 36 mg/kg/day on Days 1 and 8, or 4.5 mg/kg/day on Days 1 to 14. Alternatively, gemcitabine was administered by rapid intravenous infusion in an amount of 300 mg/kg/day once a week for two weeks (Days 1 and 8), or by continuous intravenous infusion in an amount of 1.0 mg/kg/day for two weeks. Relative tumor volume was obtained and compared in a drug administered group and a non-administered group (control group) of each administration method.

[3] = tested on: human pancreatic cancer line PAN-4; assay: Antitumor effect of continuous intravenous infusion in tumor-bearing rats; format: in vivo, rat; details: two-week continuous infusion 4.5 mg/kg/day Days 1 to 14 compared with 24-hour continuous infusion 36 mg/kg/day Day 1
Experimental: (§1) A relation between the antitumor effect and side effect (body weight suppression) was studied in a continuous intravenous infusion of CNDAC administered to tumor-bearing rats having the human pancreatic cancer line PAN-4. FIGS. 3 and 4 indicate the results.
(§2) CNDAC was administered by continuous intravenous infusion (continuously injected under the skin for 24 hours using a subcutaneous implantation constant-speed pump) in an amount of 36 mg/kg/day on Day 1, or 4.5 mg/kg/day on Days 1 to 14. Relative tumor volume was obtained and compared in a CNDAC administered group and a non-administered group (control group) of each administration method.

[4] = Side effect (body weight suppression) in tumor-bearing rats having PAN-4; format: in vivo, rat
Experimental: as §1, §2
Further, body weight reduction in the two-week continuous intravenous infusion group and 24-hour continuous intravenous infusion group was studied.

[5] = tested on: human lung cancer line LX-1; assay: Antitumor effect, rapid vs continuous intravenous infusion in tumor-bearing rats; format: in vivo, rat; details: continuous infusion 4.5 mg/kg/day for two weeks compared with rapid intravenous infusion (800 mg/kg/day Days 1, 5, 8, 12 or 20 mg/kg/day Days 1-5 and 8-12)
Experimental: The antitumor effect was studied in rapid intravenous infusion and continuous intravenous infusion of CNDAC in tumor-bearing rat models. FIG. 1 indicates the study results of the antitumor effect in rapid intravenous infusion and continuous intravenous infusion of CNDAC administered to tumor-bearing rats having the human lung cancer line LX-1.
CNDAC (free base) was administered by rapid intravenous infusion (rapidly injected into a caudal vein using a syringe) in an amount of 800 mg/kg/day on Days 1, 5, 8, and 12, or 20 mg/kg/day on Days 1 to 5 and 8 to 12. Alternatively, CNDAC was administered by continuous intravenous infusion (continuously injected under the skin for 24 hours using a subcutaneous implantation constant-speed pump) in an amount of 4.5 mg/kg/day for two weeks. Relative tumor volume (a ratio of tumor volume on Day 1 of administration and that on Day 14 of administration) was obtained in a CNDAC administered group and a non-administered group (control group) of each administration method, and the obtained relative tumor volume was compared.

[6] = tested on: patients having a variety of solid cancers; assay: Clinical Phase I equivalent test, continuous intravenous infusion for 336 hours once every three weeks; format: in vivo, human
Experimental: The frequency of adverse events and treatment effect were studied in a case where a course was repeatedly performed in which the antitumor agent was administered to cancer patients by continuous intravenous infusion in an amount of 2.0 to 4.0 mg/m^2 of CNDAC (free base) for a duration of 336 hours once every three weeks.
(§3) The present test was conducted on patients having a variety of solid cancers for which standard treatment was ineffective or no treatment was available (e.g., digestive system cancer, head and neck cancer, breast cancer, and the like). The test is equivalent to the Clinical Phase I Test, which primarily evaluates safety so as to determine a recommended dose (RD) that can be safely administered with no side effect concerns in the Clinical Phase II Test implemented per cancer type. Treatment effect on tumors was also evaluated in the test when possible. In the treatment effect test, the cytoreductive effect was determined based on comprehensive evaluation of target lesions (lesions having a size measurable at a slice width on CT and a larger size) and non-target lesions (all lesions not included in the target lesions), with reference to the RECIST evaluation method (Journal of the National Cancer Institute, 2000, Vol. 92, No. 3, 205-216). […] SD (stable disease) indicates a case where reduction of tumors was not enough to be determined as PR, but insufficient to be determined as PD; and the progression of tumors stopped and no exacerbation was observed.

[7] = tested on: patients having a variety of solid cancers; assay: Clinical Phase I equivalent test, continuous intravenous infusion for 168 hours once every two weeks; format: in vivo, human
Experimental: as §3
The frequency of adverse events and treatment effect were studied in a case where a course was repeatedly performed in which the antitumor agent was administered by continuous intravenous infusion in an amount of 3.0 to 4.0 mg CNDAC (free base) per square meter of body surface area for a duration of 168 hours once every two weeks. Tested patients, evaluation methods, and evaluation standards are the same as those in the test in Example 1.

[8] = tested on: human breast cancer and colon cancer lines; assay: Antitumor effect, rapid vs continuous intravenous infusion in tumor-bearing rat models, further lines; format: in vivo
[9] = 3.0 mg/m^2, 336 hours once every three weeks
[10] = 4.0 mg/m^2, 168 hours once every two weeks

N#C[C@H]1[C@H](O)[C@@H](CO)O[C@H]1n1ccc(N)nc1=O [CNDAC, 4-amino-1-(2-cyano-2-deoxy-β-D-arabinofuranosyl)-2(1H)-pyrimidinone]
antitumor and antiproliferative effects [1]: strong antitumor and antiproliferative effects
tumor volume after completion of administration ([2]; CNDAC continuous intravenous infusion (36 mg/kg/day Days 1 and 8 or 4.5 mg/kg/day Days 1 to 14)): significantly reduced even after the administration was completed
antitumor effect (relative tumor volume) [3]: significantly high antitumor effect
body weight reduction at maximum ([4]; 24-hour continuous intravenous infusion group, 36 mg/kg/day on Day 1): 20.4%
body weight reduction at maximum ([4]; two-week continuous intravenous infusion, 4.5 mg/kg/day on Days 1 to 14): 4.6%
antitumor effect (relative tumor volume) [5]: high antitumor effect
adverse event requiring interruption of the administration ([6]; 2.0 mg/m^2, 336 hours once every three weeks): no adverse event was seen that required interruption of the administration
reduction (tumor) in one SD case ([6]; 2.0 mg/m^2, 336 hours once every three weeks, one case): about 15%
dose limiting toxicity (DLT) [6, 9]: not observed
neutropenia of Grades 3 and 4 [6, 9]: found in the second case each of two courses
efficacy (SD, stable disease), cases ([6]; 3.0 mg/m^2, 336 hours once every three weeks, RECIST): one out of the three cases
platelet reduction of Grade 4 ([6]; 4.0 mg/m^2, 336 hours once every three weeks): one out of the three cases
febrile neutropenia of CTCAE Grade 3 ([6]; 4.0 mg/m^2, 336 hours once every three weeks, three cases): all cases
dose limiting toxicity (DLT) observed, cases ([6]; 4.0 mg/m^2, 336 hours once every three weeks, three out of three cases): 100%
adverse event requiring interruption of the administration ([7]; 3.0 mg/m^2, 168 hours once every two weeks): no adverse event was seen that required interruption of the administration
febrile neutropenia of CTCAE Grade 3 [7, 10]: one case
neutropenia of Grade 4 [7, 10]: one case
efficacy (SD, stable disease), cases ([7]; 4.0 mg/m^2, 168 hours once every two weeks, two out of the three cases): 67%
dose limiting toxicity (DLT) observed, cases ([7]; 4.0 mg/m^2, 168 hours once every two weeks, two out of three evaluable cases): 67%
antitumor effect of continuous compared with rapid intravenous infusion [8]: The effect was exhibited

Nc1ccn([C@@H]2O[C@H](CO)[C@@H](O)C2(F)F)c(=O)n1 [gemcitabine, reference compound]
tumor volume after completion of administration ([2]; gemcitabine continuous intravenous infusion 1.0 mg/kg/day for two weeks): not reduced after the administration was completed
